Data reported in patent US10287305B2, “Substituted piperidine compound and use thereof” (Takeda Pharmaceutical Company Limited, priority 2016, dated 2019).

Target: human orexin type 2 receptor (hOX2R) (Homo sapiens (Human), UniProt O43614)
Assay: Measurement of orexin type 2 receptor agonist activity (Experimental Example 2-1, FLIPR TETRA, intracellular Ca2+);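 on Emax: Buffer-only well is 0% and 10 nM human orexin B is 100%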
Type: cell-based
Settings: CHO dhfr- cells expressing hOX2R; for EC50: agonist activity, 10 nM human orexin B = 100%; for Emax at 30 µM: value at 30 uM concentration, orexin B as full agonist = 100%
From the text: To obtain a cell clone stably expressing human orexin type 2 receptor, human orexin type 2 receptor cDNA was inserted into pcDNA3.1(+) plasmid vector (Invitrogen), and a plasmid DNA for expression of human orexin type 2 receptor (pcDNA3.1(+)/hOX2R) was cloned. The plasmid DNA was introduced into CHO-dhfr cell by an electroporation method, and human orexin type 2 receptor expressing clone cells were obtained by limiting dilution method by using G418 drug resistance as a selection marker.
Chinese hamster ovary (CHO) dhfr-cells forcibly expressing human orexin type 2 receptor (hOX2R) were seeded in each well of Black clear bottom plate (384 wells) (Becton, Dickinson and Company) by 10,000 cells, and cultured for 16 hr in an MEM-alpha (Nikken-Bio Co., Ltd.) medium containing 100 U/ml penicillin, 100 μg/ml streptomycin, […] G418 (all above Invitrogen), and 10% fetal calf serum (Thermo), under the conditions of 37° C., 5% CO2. […] A test compound was dissolved in dimethyl sulfoxide to 10 mM, and then diluted with assay buffer 2 (20 mM HEPES, Hanks' balanced salt solution (Invitrogen), 0.1% bovine serum albumin). For the reaction, a test compound solution (10 μL) was added using Fluorescent Imaging Plate Reader TETRA (FLIPR TETRA; manufactured by Molecular Devices), a fluorescence value (excitation wavelength 488 nm, measurement wavelength 570 nm) of each well was measured every one second for 1 min, and the agonist activity was determined using the area of the fluorescence value as an indicator of intracellular Ca^2+ concentration.

Chain of human orexin type 2 receptor (hOX2R) (O43614 whole entry): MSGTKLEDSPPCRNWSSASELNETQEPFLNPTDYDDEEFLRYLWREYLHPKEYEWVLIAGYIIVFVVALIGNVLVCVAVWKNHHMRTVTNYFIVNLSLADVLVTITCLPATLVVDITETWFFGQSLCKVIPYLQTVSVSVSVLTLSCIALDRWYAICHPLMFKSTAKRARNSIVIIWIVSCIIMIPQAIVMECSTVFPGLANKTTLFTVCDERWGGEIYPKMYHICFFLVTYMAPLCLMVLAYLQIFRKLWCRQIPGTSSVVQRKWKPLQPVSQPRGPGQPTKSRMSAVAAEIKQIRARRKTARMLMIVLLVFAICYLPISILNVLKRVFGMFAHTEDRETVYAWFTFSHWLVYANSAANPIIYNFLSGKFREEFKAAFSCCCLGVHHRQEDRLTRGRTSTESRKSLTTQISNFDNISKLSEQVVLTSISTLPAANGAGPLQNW

| SMILES | EC50 [nM] | Emax at 30 µM [%] |
| --- | --- | --- |
| CC(C)[C@H]1CC[C@@H](OC[C@H]2[C@@H](NS(C)(=O)=O)CCCN2C(=O)CCS(C)(=O)=O)CC1 (relative stereo) [Example 74, N-(cis-2-(((cis-4-isopropylcyclohexyl)oxy)methyl)-1-(3-(methylsulfonyl)-propanoyl)piperidin-3-yl)methanesulfonamide] | 750 | 89 |
| CC(=O)CCC(=O)N1CCC[C@H](NS(C)(=O)=O)[C@@H]1CO[C@H]1CC[C@@H](C(C)C)CC1 (relative stereo) [Example 75, N-(cis-2-(((cis-4-isopropylcyclohexyl)oxy)methyl)-1-(4-oxopentanoyl)piperidin-3-yl)methanesulfonamide] |  | 88 |
| CC(=O)N1CCC[C@H](NS(=O)(=O)C(C)C)[C@@H]1CO[C@H]1CC[C@@H](C(C)C)CC1 (relative stereo) [Example 76, N-(cis-1-acetyl-2-(((cis-4-isopropylcyclohexyl)oxy)methyl)piperidin-3-yl)propane-2-sulfonamide] | 300 | 103 |
| CCCS(=O)(=O)N[C@H]1CCCN(C(C)=O)[C@H]1CO[C@H]1CC[C@@H](C(C)C)CC1 (relative stereo) [Example 77, N-(cis-1-acetyl-2-(((cis-4-isopropylcyclohexyl)oxy)methyl)piperidin-3-yl)propane-1-sulfonamide] | 1000 | 91 |
| CC(=O)N1CCC[C@H](NS(=O)(=O)N(C)C)[C@@H]1CO[C@H]1CC[C@@H](C(C)C)CC1 (relative stereo) [Example 78, N′-(cis-1-acetyl-2-(((cis-4-isopropylcyclohexyl)oxy)methyl)piperidin-3-yl)-N,N-dimethylsulfuric diamide] | 63 | 91 |
| CCNS(=O)(=O)N[C@H]1CCCN(C(C)=O)[C@H]1CO[C@H]1CC[C@@H](C(C)C)CC1 (relative stereo) [Example 79, N-(cis-1-acetyl-2-(((cis-4-isopropylcyclohexyl)oxy)methyl)piperidin-3-yl)-N′-ethylsulfuric diamide] | 330 | 85 |
| CC(=O)N1CCC[C@H](NS(=O)(=O)C(F)(F)F)[C@@H]1CO[C@H]1CC[C@@H](C(C)C)CC1 (relative stereo) [Example 80, N-(cis-1-acetyl-2-(((cis-4-isopropylcyclohexyl)oxy)methyl)piperidin-3-yl)-1,1,1-trifluoromethanesulfonamide] | 660 | 98 |
| CC(C)[C@H]1CC[C@@H](OC[C@H]2[C@@H](NS(C)(=O)=O)CCCN2C(=O)C2CN(S(C)(=O)=O)C2)CC1 (relative stereo) [Example 90, N-(cis-2-(((cis-4-isopropylcyclohexyl)oxy)methyl)-1-((1-(methylsulfonyl)azetidin-3-yl)carbonyl)piperidin-3-yl)methanesulfonamide] | 2800 | 74 |
| CC(C)[C@H]1CC[C@@H](OC[C@H]2[C@@H](NS(C)(=O)=O)CCCN2C(=O)Cn2cnccc2=O)CC1 (relative stereo) [Example 93, N-(cis-2-(((cis-4-isopropylcyclohexyl)oxy)methyl)-1-((6-oxopyrimidin-1(6H)-yl)acetyl)piperidin-3-yl)methanesulfonamide] | 2300 | 84 |
| CC(=O)N1CCC[C@H](NS(C)(=O)=O)[C@@H]1CO[C@H]1CC[C@@H](C(C)(C)F)CC1 (relative stereo) [Example 95, N-(cis-1-acetyl-2-(((cis-4-(2-fluoropropan-2-yl)cyclohexyl)oxy)methyl)piperidin-3-yl)methanesulfonamide] | 4300 | 89 |
| COCCNC(=O)N1CCC[C@H](NS(C)(=O)=O)[C@@H]1CO[C@H]1CC[C@@H](C(C)C)CC1 (relative stereo) [Example 96, cis-2-(((cis-4-isopropylcyclohexyl)oxy)methyl)-N-(2-methoxyethyl)-3-((methylsulfonyl)amino)piperidine-1-carboxamide] | 26 | 95 |
| CC(C)[C@H]1CC[C@@H](OC[C@H]2[C@@H](NS(C)(=O)=O)CCCN2C(=O)NCCO)CC1 (relative stereo) [Example 97, cis-N-(2-hydroxyethyl)-2-(((cis-4-isopropylcyclohexyl)oxy)methyl)-3-((methylsulfonyl)amino)piperidine-1-carboxamide] | 4.5 | 108 |
| CC(C)[C@H]1CC[C@@H](OC[C@H]2[C@@H](NS(C)(=O)=O)CCCN2C(=O)NCC(F)(F)F)CC1 (relative stereo) [Example 98, cis-2-(((cis-4-isopropylcyclohexyl)oxy)methyl)-3-((methylsulfonyl)amino)-N-(2,2,2-trifluoroethyl)piperidine-1-carboxamide] |  | 107 |
| CC(C)[C@H]1CC[C@@H](OC[C@H]2[C@@H](NS(C)(=O)=O)CCCN2C(=O)NC2CC2)CC1 (relative stereo) [Example 99, cis-N-cyclopropyl-2-(((cis-4-isopropylcyclohexyl)oxy)methyl)-3-((methylsulfonyl)amino)piperidine-1-carboxamide] | 13 | 112 |
| CCCNC(=O)N1CCC[C@H](NS(C)(=O)=O)[C@@H]1CO[C@H]1CC[C@@H](C(C)C)CC1 (relative stereo) [Example 100, cis-2-(((cis-4-isopropylcyclohexyl)oxy)methyl)-3-((methylsulfonyl)amino)-N-propylpiperidine-1-carboxamide] | 2.2 | 112 |
| CC(C)NC(=O)N1CCC[C@H](NS(C)(=O)=O)[C@@H]1CO[C@H]1CC[C@@H](C(C)C)CC1 (relative stereo) [Example 101, cis-N-isopropyl-2-(((cis-4-isopropylcyclohexyl)oxy)methyl)-3-((methylsulfonyl)amino)piperidine-1-carboxamide] | 2.3 | 115 |
| CC(=O)N1CCC[C@H](NS(C)(=O)=O)[C@@H]1CO[C@H]1CC[C@@H](C(F)(F)F)CC1 (relative stereo) [Example 106, N-(cis-1-acetyl-2-(((cis-4-(trifluoromethyl)cyclohexyl)oxy)methyl)piperidin-3-yl)methanesulfonamide] | 4800 | 89 |
| CCNC(=O)N1CCC[C@H](NS(C)(=O)=O)[C@@H]1CO[C@H]1CC[C@@H](C(F)(F)F)CC1 (relative stereo) [Example 107, cis-N-ethyl-3-((methylsulfonyl)amino)-2-(((cis-4-(trifluoromethyl)cyclohexyl)oxy)methyl)piperidine-1-carboxamide] | 120 | 75 |
| CN(C)S(=O)(=O)N[C@H]1CCCN[C@H]1CO[C@H]1CC[C@@H](c2ccccc2)CC1 (relative stereo) [Example 109, N,N-dimethyl-N′-(cis-2-(((cis-4-phenylcyclohexyl)oxy)methyl)piperidin-3-yl)sulfuric diamide] | 480 | 102 |
| CC(=O)N1CCC[C@H](NS(=O)(=O)N(C)C)[C@@H]1CO[C@H]1CC[C@@H](c2ccccc2)CC1 (relative stereo) [Example 111, N′-(cis-1-acetyl-2-(((cis-4-phenylcyclohexyl)oxy)methyl)piperidin-3-yl)-N,N-dimethylsulfuric diamide] | 13 | 97 |
| CC(=O)N1CCC[C@H](NS(C)(=O)=O)[C@@H]1CO[C@H]1CC[C@@H](c2ccc(F)cc2)CC1 (relative stereo) [Example 112, N-(cis-1-acetyl-2-(((cis-4-(4-fluorophenyl)cyclohexyl)oxy)methyl)piperidin-3-yl)methanesulfonamide] | 420 | 94 |
| CCNC(=O)N1CCC[C@H](NS(C)(=O)=O)[C@@H]1CO[C@H]1C[C@@H](c2ccccc2)C1 (relative stereo) [Example 113, cis-N-ethyl-3-((methylsulfonyl)amino)-2-(((cis-3-phenylcyclobutyl)oxy)methyl)piperidine-1-carboxamide] | 59 | 93 |
| CC(=O)N1CCC[C@H](NS(C)(=O)=O)[C@@H]1CO[C@H]1C[C@@H](c2ccccc2)C1 (relative stereo) [Example 114, N-(cis-1-acetyl-2-(((cis-3-phenylcyclobutyl)oxy)methyl)-piperidin-3-yl)methanesulfonamidea] | 3500 | 79 |
| CS(=O)(=O)N[C@H]1CCCN[C@H]1CO[C@H]1CC[C@@H](c2ccccc2F)CC1 (relative stereo) [Example 115, N-(cis-2-(((cis-4-(2-fluorophenyl)cyclohexyl)oxy)methyl)piperidin-3-yl)methanesulfonamide] | 770 | 97 |
| CCNC(=O)N1CCC[C@H](NS(C)(=O)=O)[C@@H]1CO[C@H]1CC[C@@H](c2ccccc2F)CC1 (relative stereo) [Example 117, cis-N-ethyl-2-(((cis-4-(2-fluorophenyl)cyclohexyl)oxy)-methyl)-3-((methylsulfonyl)amino)piperidine-1-carboxamide] | 0.12 | 91 |
